According to the NIST ThermoML archive (doi:10.1016/j.fluid.2018.10.006):

Conditions: Fluid (supercritical or subcritical phases), Coaxial cylinder method

CCCCCC [hexane]
Conditions | thermal conductivity [W/m/K]
515.56 K, 3520 kPa | 0.06911
515.56 K, 3541 kPa | 0.06911
515.56 K, 3550 kPa | 0.06911
515.56 K, 3566 kPa | 0.06911
515.56 K, 3579 kPa | 0.06769
515.56 K, 3614 kPa | 0.06769
515.56 K, 3638 kPa | 0.06769
515.56 K, 3682 kPa | 0.06769
515.56 K, 3700 kPa | 0.06769
515.56 K, 3750 kPa | 0.06938
515.56 K, 3800 kPa | 0.06938
515.56 K, 3841 kPa | 0.06944
515.56 K, 3900 kPa | 0.0695
515.56 K, 3928 kPa | 0.06953
515.56 K, 3941 kPa | 0.06959
515.56 K, 3995 kPa | 0.06965
515.56 K, 4000 kPa | 0.06968
515.56 K, 4025 kPa | 0.06968
515.56 K, 4104 kPa | 0.06983
515.56 K, 4200 kPa | 0.07004
515.56 K, 4307 kPa | 0.07016
515.56 K, 4388 kPa | 0.07034
515.56 K, 4400 kPa | 0.0704
515.56 K, 4488 kPa | 0.07058
515.56 K, 4537 kPa | 0.07067
515.56 K, 4593 kPa | 0.0708
515.56 K, 4620 kPa | 0.07089
515.56 K, 4700 kPa | 0.07098
515.56 K, 4790 kPa | 0.07114
515.56 K, 4800 kPa | 0.07117
515.56 K, 4830 kPa | 0.07123
515.56 K, 4900 kPa | 0.07129
515.56 K, 5000 kPa | 0.07151
515.56 K, 5100 kPa | 0.07167
515.56 K, 5130 kPa | 0.0717
515.56 K, 5200 kPa | 0.07182
515.56 K, 5300 kPa | 0.07198
515.56 K, 5400 kPa | 0.07217
515.56 K, 5580 kPa | 0.07243
515.56 K, 5600 kPa | 0.07246
515.56 K, 5690 kPa | 0.07265
515.56 K, 5740 kPa | 0.07275
515.56 K, 5800 kPa | 0.07285
515.56 K, 5900 kPa | 0.07301
515.56 K, 6050 kPa | 0.07327
515.56 K, 6060 kPa | 0.07327
515.56 K, 6080 kPa | 0.0733
515.56 K, 6300 kPa | 0.07366
515.56 K, 6380 kPa | 0.0738
515.56 K, 6460 kPa | 0.07393
515.56 K, 6610 kPa | 0.07417
515.56 K, 6920 kPa | 0.07464
515.56 K, 6950 kPa | 0.07468
515.56 K, 7020 kPa | 0.07478
515.56 K, 7100 kPa | 0.07488
515.56 K, 7470 kPa | 0.0754
515.56 K, 7560 kPa | 0.07554
515.56 K, 7570 kPa | 0.07557
515.56 K, 7600 kPa | 0.0756
515.56 K, 7840 kPa | 0.07592
515.56 K, 7870 kPa | 0.07595
515.56 K, 7940 kPa | 0.07602
515.56 K, 8050 kPa | 0.07617
515.56 K, 8100 kPa | 0.0762
515.56 K, 8140 kPa | 0.07624
515.56 K, 8230 kPa | 0.07638
515.56 K, 8370 kPa | 0.07656
515.56 K, 8470 kPa | 0.07663
515.56 K, 8540 kPa | 0.0767
515.56 K, 8730 kPa | 0.07695
515.56 K, 8870 kPa | 0.07714
515.56 K, 9080 kPa | 0.07739
515.56 K, 9100 kPa | 0.07739
525.42 K, 1000 kPa | 0.0403
525.42 K, 1500 kPa | 0.0416
525.42 K, 1975 kPa | 0.04209
525.42 K, 1984 kPa | 0.04209
525.42 K, 2100 kPa | 0.04213
525.42 K, 2200 kPa | 0.04213
525.42 K, 2300 kPa | 0.04213
525.42 K, 2404 kPa | 0.04213
525.42 K, 2423 kPa | 0.04213
525.42 K, 2425 kPa | 0.04213
